The text below walks through data of patent publication US10912741B2, “Prevention of liver cancer with safranal-based formulations” (United Arab Emirates University, priority 2019, dated 2021).

Molecules are shown by their SMILES. Marks after values point to notes of the source that are not given here.

For series [1], the system named is COX-2. Nature of the series: Immunohistochemical staining of liver sections, COX-2 positive cells. Type of series: in vivo, albino Wistar rats. The settings on record: mean±SEM, 8 rats. The protocol: (§1) The experimental hepatocarcinogenesis model was developed according to a protocol by Espandiaria et al. that was adapted for our purposes. To initiate and promote hepatocarcinogenesis, diethylnitrosamine (DEN) and 2-acetylaminofluorene (2-AAF) were used, respectively. For hepatocarcinogenesis initiation in this model, a single DEN dose (200 mg/kg b.wt.) dissolved in saline was injected intraperitoneally. After initiation, all rats underwent one period of 5-days fasting, as mitotic proliferative stimuli. To promote hepatocarcinogenesis, 2-acetylaminofluorene (2-AAF) was introduced in the form of six daily intragastric doses (30 mg/kg in 1% Tween 80); two weeks after DEN treatment.
Safranal at doses of 25 mg/kg by weight (b.wt.) and 50 mg/kg b.wt, was administrated orally to rats. These doses have been reported to suppress chemically-induced oxidative damage in rats. A total of 40 adult male albino Wistar rats were randomly divided into […] (n=8) and were subjected to different treatments. Group 1 (control) was orally administered distilled water (5 ml/kg b.wt.) throughout the experimental duration and were injected with a single dose of saline. Group 2 (Safranal only) was subjected to a safranal dose (50 mg/kg b.wt.) through oral administration for the duration of the experimental period. Hepatocarcinogenesis was induced by DEN and promoted by 2-AAF, as reported previously, in group 3 (HCC). Rats in protective groups (groups 4-5) were treated with low/high doses of saffron-based safranal suspensions, at the beginning of promotion periods and continued for 12 weeks. The low dosage treatment with safranal consisted of 25 mg/kg b.wt., and the high dosage treatment consisted of 50 mg/kg b.wt. The experimental design is illustrated in FIG. 1.
(§2) For immunohistochemical staining, mounted sections were immersed in sodium citrate buffer (0.1 M, pH 6) and placed in a water bath for 15 minutes to unmask antigen epitopes. […] Ten fields were randomly selected to quantify positive cells, in individual samples (400×). […]

Series [2] deals with p-TNF-R1. The series is described as follows: Immunohistochemical staining of liver sections, p-TNF-R1 positive cells. Type of series: in vivo, albino Wistar rats. The procedure: as §1
Safranal at doses of 25 mg/kg by weight (b.wt.) and 50 mg/kg b.wt, was administrated orally to rats. These doses have been reported to suppress chemically-induced oxidative damage in rats. A total of 40 adult male albino Wistar rats were randomly divided into […] (n=8) and were subjected to different treatments. […]
as §2

A short description of series [3]: Cell viability assay (CellTiter-Glo). Format: cell-based, human. The settings on record: human, HepG2 cells, 1 mM safranal, read-out: reduction of cell viability. The protocol:
(§3) HepG2, were cultured in RPMI 1640 medium (HyClone, USA) and 1% of 100 U/ml penicillin and 100 ug/ml streptomycin (Sigma, USA) supplemented with 10% fetal bovine serum (Sigma, USA) at 37° C. in a humidified 5% CO2 atmosphere. Cells were sub-cultured each 4-6 days using trypsin 0.25% (Hyclone, USA).
(§4) HepG2 cells were seeded in 96-well plates at the density of 10000 cells/well and grown in 100 uL of complete growth medium. Complete growth medium was replaced by serum-free medium after cells were allowed to attach for 24 hours; after which cells were incubated for at least 12 hours. Cells were incubated for 24 hours after treatment with various concentrations of safranal (1 mM, 0.3 mM, 0.1 mM, 0.03 mM, 0.01 mM) prepared from 10 mM stock solution. After incubation period, viability of HepG2 cells was assessed using CellTiter-Glo luminescent cell viability assay kit according to manufacturer's instruction (Promega, USA).
(In general: ATP-based viability assays read luminescence as a measure of living cells.)

Series [4] deals with HepG2 cells. The series is described as follows: Cell viability assay (CellTiter-Glo). Format: cell-based, human. Particulars: 0.01, 0.03, 0.1, 0.3, 1 mM, 24 hours. The protocol: as §3, §4
Series [5] has as its system IL-8 secretion by HepG2 cells. Nature of the series: IL-8 ELISA of supernatant of safranal-treated cells. Format: cell-based, human. The settings on record: as early as 6 hrs. The procedure:
as §3
(§5) In 100 mm plates, HepG2 cells were seeded at a density of 2×10^4 in complete growth medium. Cells were allowed to attach for 24 hours, after which complete growth medium was replaced by serum-free medium. Cells were treated with safranal at a concentration of 1 mM (20 mM stock). Plates were incubated for 6, 12, 24, and 48 hours in a humidified 5% CO2 atmosphere at 37° C. At indicated times, 1 mL of cell supernatant was obtained from each plate and was stored at −80° C. for further analysis by ELISA. After which whole cell lysates were prepared. Bicinchoninic acid (BCA) assay (Sigma-Aldrich, USA) was used to determine concentration of protein. Thirty μg of protein were loaded onto 10% SDS polyacrylamide electrophoresis gels. […]
Supernatant of safranal-treated cells were used to investigate the effect of safranal on IL-8 secretion level. […] Absorbance was recorded at 450 nm with background subtraction at 570 nm using a microplate reader (Biotek, Winooski, Vt., USA).
(In general: ELISA stands for enzyme-linked immunosorbent assay.)

The subject of series [6] is p-IkB in HepG2 cells. Nature of the series: Western blotting, p-IkB. Particulars: starting at 24 hours of safranal treatment (1 mM). Type of series: cell-based, human. The protocol: as §3
as §5, with “gels. The gels were transferred onto nitrocellulose membranes prior to immunodetection processing with anti-p-IkB-alpha, anti-H2AX (Cell Signaling Technology, USA), and with anti-rabbit IgG peroxidase conjugated secondary antibodies.” for “gels.”
(Immunoblotting shows a protein as a band on a membrane.)

Consider `CC1=C(C=O)C(C)(C)CC=C1` [Safranal, 2,6,6-trimethylcyclohexa-1,3-diene-1-carbaldehyde], for which the COX-2 positive cells in series [1] (HCC (DEN/2-AAF) rats + safranal high dose 50 mg/kg b.wt. oral, 12 weeks) was 6.91 ± 1.09^a&b positive cells/field; in series [1] (HCC (DEN/2-AAF) rats + safranal low dose 25 mg/kg b.wt. oral, 12 weeks), 2.15 ± 0.38^b positive cells/field; in series [1] (safranal alone 50 mg/kg b.wt. oral, no DEN (group 2)), 0.58 ± 0.04 positive cells/field. The “number of p-TNF-R1 positive cells” value is listed as “highly significant decrease” in series [2] (low/high doses of safranal, DEN-2-AAF-treated animals (groups 4-5), vs HCC group) and “change of no significance” in series [2] (safranal alone, compared to control group). For the same molecule, the cytotoxicity at 24 h, 1 mM in series [3] is approximately 70%. The HepG2 cells viability result in series [4] is listed as “significant dose-dependent reduction”. Also, the IL-8 secretion result in series [5] is recorded as “dramatic decrease in IL-8 secretion”. The “level of p-IkB protein” value in series [6] is “transiently decreased”.
